Columns and labels:
Enterobacter aerogenes = experiment: Median MIC, clinical isolates, agar-plate dilution (Table 1); type: cell-based
Description: Note: Compound (I) and Compound (A) were subjected to the test in the form of the sodium salt. The minimum inhibitory concentration (MIC) was determined using the agar-plate dilution method recommended by Japan Society of Chemotherapy.

Klebsiella pneumoniae [1] = experiment: MIC, nutrient broth dilution (Table 2); type: cell-based
Description: (§1) Note: Compound (I), Compound (A) and Compound (B) were subjected to the test in the form of the sodium salt. For each test, eight male ICR-SLC strain mice were used at each dose level. MIC was determined by the nutrient broth dilution method. In determination of PD50, subcutaneous treatment was carried out twice, i.e. 1 and 4 hours after infection.

Pseudomonas aeruginosa [2] = experiment: MIC, nutrient broth dilution (Table 2); type: cell-based
Description: as §1

Escherichia coli = experiment: MIC, nutrient broth dilution (Table 2); type: cell-based
Description: as §1

Klebsiella pneumoniae [3] = experiment: MIC, nutrient broth dilution (Table 5); type: cell-based; conditions: Klebsiella pneumoniae strain No. 1, sodium salt
Description: (§2) The relative activities of Compound (I) and Compound (C) against various intraperitioneal infections in mice evaluated by the minimum inhibitory concentrations and the means median protective doses (subcutaneously administered) are shown in Table 5.
(§3) Note: Compound (I) and Compound (C) were subjected to the test in the form of the sodium salt. For each test, five male ICR-SLC strain mice were used at each dose level. MIC was determined by the nutrient broth dilution method. In determination of PD50, subsutaneous treatment was carried out three times, i.e. 1, 3 and 5 hours after infection.

Staphylococcus aureus = experiment: MIC, nutrient broth dilution (Table 5); type: cell-based; conditions: Staphylococcus aureus strain A24, sodium salt
Description: as §2, §3

Pseudomonas aeruginosa [4] = experiment: MIC, nutrient broth dilution (Table 5); type: cell-based; conditions: Pseudomonas aeruginosa strain TS, sodium salt
Description: as §2, §3

Streptococcus faecalis = experiment: MIC, nutrient broth dilution (Table 5); type: cell-based; conditions: Enterococcus faecalis, Streptococcus faecalis strain F10, sodium salt
Description: as §2, §3

[5] = pain when administered parenterally; type: in vivo; conditions: relative to said penicillins
[6] = Protein-binding rate in human serum (Table 6); type: in vitro ADME; conditions: for fraction unbound: human, serum, sodium salt
From the text: The following data are related to the pharmacokinetic profiles of Compound (I) compared with Compound (C).
Note: Compound (I) and Compound (C) were subjected to the test in the form of the sodium salt.

CC1(C)S[C@@H]2[C@H](NC(=O)[C@H](NC(=O)c3ccnnc3O)c3ccc(O)cc3)C(=O)N2[C@H]1C(=O)O [Compound (I), 6-[D-2-(3-hydroxypyridazine-4-carbonamido)-2-(p-hydroxyphenyl)acetamido]penicillanic acid]
MIC50 (Enterobacter aerogenes; Klebsiella aerogenes, 8 clinical isolates, sodium salt, read-out: Median minimum inhibitory concentration): 25 µg/mL
antibacterial activity relative to Compound (A) (Enterobacter aerogenes; clinical isolates): superior
MIC (Klebsiella pneumoniae [1]; Klebsiella pneumoniae strain No. 1, sodium salt): 6.25 µg/mL
MIC (Klebsiella pneumoniae [1]; Klebsiella pneumoniae strain No. 6, sodium salt): 25 µg/mL
MIC (Klebsiella pneumoniae [1]; Klebsiella pneumoniae strain No. 20, sodium salt): 12.5 µg/mL
MIC (Pseudomonas aeruginosa [2]; Pseudomonas aeruginosa strain NC-5, sodium salt): 12.5 µg/mL
MIC (Pseudomonas aeruginosa [2]; Pseudomonas aeruginosa strain T, sodium salt): 25 µg/mL
MIC (Escherichia coli; Escherichia coli strain NIHJ, sodium salt): 6.25 µg/mL
MIC (Escherichia coli; Escherichia coli strain No. 37, sodium salt): 12.5 µg/mL
MIC (Klebsiella pneumoniae [3]): 6.25 µg/mL
MIC (Staphylococcus aureus): 0.39 µg/mL
MIC (Pseudomonas aeruginosa [4]): 6.25 µg/mL
MIC (Streptococcus faecalis): 1.56 µg/mL
pain when administered parenterally [5]: weaker pain
protein-binding rate relative to Compound (C) ([6]; human serum): lower protein-binding rate
fraction unbound ([6]; Ultracentrifugation method): 0.4
fraction unbound ([6]; Ultrafiltration method): 0.42
